Columns and labels:
Assay type in all cases: functional, cell-based
[1] = Cytotoxicity against buthionine sulfoximine-pretreated human HeLaS3 cells after 2 hrs by MTT assay; conditions: HeLa S3
[2] = Cytotoxicity against buthionine sulfoximine-pretreated human HeLaS3 cells after 4 days by MTT assay; conditions: HeLa S3
[3] = Cytotoxicity against human HeLaS3 cells after 4 days by MTT assay; conditions: HeLa S3, 96 h
[4] = Cytotoxicity against mouse EN19 cells after 1 week by clonogenic assay; conditions: EN19, 168 h
[5] = Cytotoxicity against mouse EN19 cells after 2 hrs by MTT assay; conditions: EN19, 2 h
[6] = Cytotoxicity against buthionine sulfoximine-pretreated mouse EN19 cells after 2 hrs by MTT assay
[7] = Cytotoxicity against buthionine sulfoximine-pretreated mouse EN19 cells after 3 days by MTT assay
[8] = Cytotoxicity against mouse EN19 cells after 3 days by MTT assay; conditions: EN19, 72 h
[9] = Cytotoxicity against human HeLaS3 cells after 2 hrs by MTT assay; conditions: HeLa S3, 2 h
[10] = Cytotoxicity against human HeLaS3 cells after 2 weeks by clonogenic assay; conditions: HeLa S3, 336 h

SMILES	IC50 [1] [µM]	IC50 [2] [µM]	IC50 [3] [µM]	IC50 [4] [µM]	IC50 [5] [µM]	IC50 [6] [nM]	IC50 [7] [µM]	IC50 [8] [µM]	IC50 [9] [µM]	IC50 [10] [µM]
COC1=C(Br)[C@H](O)[C@](O)(CC#N)C=C1Br	5.4	2.8	5.6	37	8.2	1100	0.7	6.2	18.8	27.5
NC(=O)CC1(O)C=C(Br)C(=O)C(Br)=C1 [VERONGIAQUINOL]	15.7	10.4	15.6	74.3	46.1	3900	5.4	26.1	31.9	58

— ChEMBL document CHEMBL1158230, “Cytotoxicity and mode of action of aeroplysinin-1 and a related dienonefrom the sponge Aplysina aerophoba” (J Nat Prod, 1996)
